Experimental data taken from publication PMC11571207, “Stereorandomized Oncocins with Preserved Ribosome Binding and Antibacterial Activity” (Journal of Medicinal Chemistry, 2024).
≈ marks a conversion by molar mass, not a printed value. Non-standard residues stand in square brackets, D forms with d. Residues, ends and D or L forms follow the SMILES beside them.

Tests used:
K. pneumoniae NCTC 418 = experiment: microbe, parasite or virus in culture; conditions: for MIC K. pneumoniae, 12.5% MHB / MIC K. pneumoniae, Full MHB: K. pneumoniae NCTC 418, 16–20 h at 37 °C; for MIC K. pneumoniae, 12.5% MHB: 12.5% Müller–Hinton medium; for MIC K. pneumoniae, Full MHB: full Müller–Hinton medium; for MIC K. pneumoniae NCTC418: supplement CSV
Source text: (§1) We tested antibacterial effects against the Gram-negative bacteria Escherichia coli, Klebsiella pneumoniae, Pseudomonas aeruginosa, and Acinetobacter baumannii and the Gram-positive methicillin-resistant Staphylococcus aureus (MRSA).
(§2) Bacterial growth assay (Figure S1), transmission electron microscopy (Figure S6), serum stability assay (Figure S7), circular dichroism spectral recording (Figures S8 and S9), antimicrobial and hemolysis activity assays (MIC and MHC), and vesicle leakage assay were carried out as described in earlier publications.[43],[44]
(§3) Minimum inhibitory concentration assay
(§4) Antimicrobial activity was assayed against P. aeruginosa PAO1, K. pneumoniae NCTC418, E. coli W3110, A. baumannii ATCC 19606, methicillin-resistant S. aureus COL (MRSA), and for selected peptides on P. aeruginosa PA14 and the polymyxin-B-resistant derivative PA14 2P4, as well as the clinical isolates ZEM-1A and ZEM9A, K. pneumoniae OXA-48, S. aureus Newman, Enterobacter cloacae and Burkholderia cenocepacia. The minimal inhibitory concentration (MIC) was determined by using broth microdilution method. A colo ny of bacteria was picked and grown in Luria-Bertani (LB) medium overnight at 37°C. For E. coli BW25113 sbmA::kan the medium was supplemented with 25 mg/L of kanamycin. The next day, the culture was then regrown in LB medium to log phase (OD600 = 0.6 to 0.8), which lasted approximately 4 h, and diluted to an OD600 of 0.022 in the desired medium. Stock solutions of 1 mg/mL of the samples were prepared in sterilized milliQ water and diluted to the beginning concentration of 64 μg/mL in 300 μL Mueller Hinton (MH)-medium. The diluted samples were added to first well of 96-well microtiter plate (TPP, untreated, Faust Laborbedarf, AG, Schaffhausen) and diluted serially by ½. Finally, 4 μL of the bacterial suspension was inoculated into the sample solutions (150 μL/well) with a final inoculation of about 5∙10^5 CFU/mL. The plates were then incubated at 37°C for 15-18h. For each assay, sterility (broth only) and growth control (broth with bacterial inoculum, without antibiotics) were checked with two columns in the plate. The next day, 15 μL of 3-(4,5-dimethylthiazol-2-yl)-2,5-diphenyltetrazolium bromide (MTT) was added to each well of the plate, such a way that MIC was defined as the lowest concentration of the peptide that inhibited visible growth of the tested

P. aeruginosa PAO1 = experiment: microbe, parasite or virus in culture; conditions: for MIC P. aeruginosa, 12.5% MHB / MIC P. aeruginosa, Full MHB: P. aeruginosa PAO1, 16–20 h at 37 °C; for MIC P. aeruginosa, 12.5% MHB: 12.5% Müller–Hinton medium; for MIC P. aeruginosa, Full MHB: full Müller–Hinton medium; for MIC P. aeruginosa PAO1: supplement CSV
Source text: as §1, §2, §3, §4

A. baumannii ATCC19606 = experiment: microbe, parasite or virus in culture; conditions: for MIC A. baumannii, 12.5% MHB / MIC A. baumannii, Full MHB: A. baumannii ATCC19606, 16–20 h at 37 °C; for MIC A. baumannii, 12.5% MHB: 12.5% Müller–Hinton medium; for MIC A. baumannii, Full MHB: full Müller–Hinton medium; for MIC A. baumannii ATCC19606: supplement CSV
Source text: as §1, §2, §3, §4

S. aureus COL (MRSA) = experiment: microbe, parasite or virus in culture; conditions: for MIC S. aureus, 12.5% MHB / MIC S. aureus, Full MHB: S. aureus COL (MRSA), 16–20 h at 37 °C; for MIC S. aureus, 12.5% MHB: 12.5% Müller–Hinton medium; for MIC S. aureus, Full MHB: full Müller–Hinton medium; for MIC S. aureus COL (MRSA): supplement CSV
Source text: as §1, §2, §3, §4

E. coli W3110 = experiment: microbe, parasite or virus in culture; conditions: for MIC E. coli, 12.5% MHB / MIC E. coli, Full MHB: E. coli W3110, 16–20 h at 37 °C, broth microdilution; for MIC E. coli, 12.5% MHB: 12.5% Müller–Hinton medium; for MIC E. coli, Full MHB: full Müller–Hinton medium; for MIC E. coli W3110: supplement CSV
Source text: as §1, §2, §3, §4

human red blood cells = experiment: Hemolysis assay, minimum hemolytic concentration; conditions: for Haemolysis on hRBC, MHC: 2.5% human red blood cells (final) in 10 mM phosphate, 150 mM NaCl, pH 7.4, 25 °C, 4 h, visual inspection; for MHC human red blood cells: supplement CSV

| SMILES | MIC K. pneumoniae, 12.5% MHB (K. pneumoniae NCTC 418) | MIC K. pneumoniae, Full MHB (K. pneumoniae NCTC 418) | MIC K. pneumoniae NCTC418 (K. pneumoniae NCTC 418; 12.5% MH pH 7.4) | MIC K. pneumoniae NCTC418 (K. pneumoniae NCTC 418; full MH pH 7.4) | MIC P. aeruginosa, 12.5% MHB (P. aeruginosa PAO1) | MIC P. aeruginosa, Full MHB (P. aeruginosa PAO1) | MIC P. aeruginosa PAO1 (P. aeruginosa PAO1; 12.5% MH pH 7.4) | MIC P. aeruginosa PAO1 (P. aeruginosa PAO1; full MH pH 7.4) | MIC A. baumannii, 12.5% MHB (A. baumannii ATCC19606) | MIC A. baumannii, Full MHB (A. baumannii ATCC19606) | MIC A. baumannii ATCC19606 (A. baumannii ATCC19606; 12.5% MH pH 7.4) | MIC A. baumannii ATCC19606 (A. baumannii ATCC19606; full MH pH 7.4) | MIC S. aureus, 12.5% MHB (S. aureus COL (MRSA)) | MIC S. aureus, Full MHB (S. aureus COL (MRSA)) | MIC S. aureus COL (MRSA) (S. aureus COL (MRSA); 12.5% MH pH 7.4) | MIC S. aureus COL (MRSA) (S. aureus COL (MRSA); full MH pH 7.4) | MIC E. coli, 12.5% MHB (E. coli W3110) | MIC E. coli, Full MHB (E. coli W3110) | MIC E. coli W3110 (E. coli W3110; 12.5% MH pH 7.4) | MIC E. coli W3110 (E. coli W3110; full MH pH 7.4) | further results |
| --- | --- | --- | --- | --- | --- | --- | --- | --- | --- | --- | --- | --- | --- | --- | --- | --- | --- | --- | --- | --- | --- |
| CC[C@H](C)[C@H](NC(=O)[C@H](CCCNC(=N)N)NC(=O)[C@H](CCCNC(=N)N)NC(=O)[C@@H]1CCCN1C(=O)[C@@H]1CCCN1C(=O)[C@H](CCCNC(=N)N)NC(=O)[C@@H]1CCCN1C(=O)[C@H](CCCNC(=N)N)NC(=O)[C@@H]1CCCN1C(=O)[C@H](CC(C)C)NC(=O)[C@H](Cc1ccc(O)cc1)NC(=O)[C@H]1CCCN1C(=O)[C@H]1CCCN1C(=O)[C@H](CCCCN)NC(=O)[C@H](CC(=O)O)NC(=O)[C@@H](N)C(C)C)C(=O)N[C@@H](Cc1ccc(O)cc1)C(=O)N[C@@H](CC(N)=O)C(=O)N[C@@H](CCCNC(=N)N)C(N)=O [DP45-Onc] (H-VDK[dP][dP]YLPRPRPPRRIYNR-NH2) | > 16 µg/mL | > 64 µg/mL | >16 µg/mL | >64 µg/mL | > 16 µg/mL | > 64 µg/mL | >16 µg/mL | >64 µg/mL | 16 µg/mL (≈ 6.69 µM) | > 64 µg/mL | 16 µg/mL (≈ 6.69 µM) | >64 µg/mL | >64 / >64 μg/mL | >64 / >64 μg/mL | >64 µg/mL | >64 µg/mL | 8 µg/mL (≈ 3.35 µM) | 64 µg/mL (≈ 26.8 µM) | 8 µg/mL (≈ 3.35 µM) | 64 µg/mL (≈ 26.8 µM) | Haemolysis on hRBC, MHC (human red blood cells): >1000 µg/mL; MHC human red blood cells (human red blood cells): >1000 µg/mL |
| CC[C@H](C)[C@H](NC(=O)[C@H](CCCNC(=N)N)NC(=O)[C@H](CCCNC(=N)N)NC(=O)[C@@H]1CCCN1C(=O)[C@@H]1CCCN1C(=O)[C@@H](CCCNC(=N)N)NC(=O)[C@@H]1CCCN1C(=O)[C@H](CCCNC(=N)N)NC(=O)[C@@H]1CCCN1C(=O)[C@H](CC(C)C)NC(=O)[C@H](Cc1ccc(O)cc1)NC(=O)[C@@H]1CCCN1C(=O)[C@@H]1CCCN1C(=O)[C@H](CCCCN)NC(=O)[C@H](CC(=O)O)NC(=O)[C@@H](N)C(C)C)C(=O)N[C@@H](Cc1ccc(O)cc1)C(=O)N[C@@H](CC(N)=O)C(=O)N[C@@H](CCCNC(=N)N)C(N)=O [DR11-Onc] (H-VDKPPYLPRP[dR]PPRRIYNR-NH2) | 2 µg/mL (≈ 0.837 µM) | 16 µg/mL (≈ 6.69 µM) | 2 µg/mL (≈ 0.837 µM) | 16 µg/mL (≈ 6.69 µM) | 16 µg/mL (≈ 6.69 µM) | > 64 µg/mL | 16 µg/mL (≈ 6.69 µM) | >64 µg/mL | 16 µg/mL (≈ 6.69 µM) | 32 µg/mL (≈ 13.4 µM) | 16 µg/mL (≈ 6.69 µM) | 32 µg/mL (≈ 13.4 µM) | >64 / >64 μg/mL | >64 / >64 μg/mL | >64 µg/mL | >64 µg/mL | 2 µg/mL (≈ 0.837 µM) | 16 µg/mL (≈ 6.69 µM) | 2 µg/mL (≈ 0.837 µM) | 16 µg/mL (≈ 6.69 µM) | Haemolysis on hRBC, MHC (human red blood cells): >1000 µg/mL; MHC human red blood cells (human red blood cells): >1000 µg/mL |
| CC[C@@H](C)[C@@H](NC(=O)[C@@H](CCCNC(=N)N)NC(=O)[C@@H](CCCNC(=N)N)NC(=O)[C@H]1CCCN1C(=O)[C@H]1CCCN1C(=O)[C@H](CCCNC(=N)N)NC(=O)[C@@H]1CCCN1C(=O)[C@H](CCCNC(=N)N)NC(=O)[C@@H]1CCCN1C(=O)[C@H](CC(C)C)NC(=O)[C@H](Cc1ccc(O)cc1)NC(=O)[C@@H]1CCCN1C(=O)[C@@H]1CCCN1C(=O)[C@H](CCCCN)NC(=O)[C@H](CC(=O)O)NC(=O)[C@@H](N)C(C)C)C(=O)N[C@H](Cc1ccc(O)cc1)C(=O)N[C@H](CC(N)=O)C(=O)N[C@H](CCCNC(=N)N)C(N)=O [D8Cterm-Onc] (H-VDKPPYLPRPR[dP][dP][dR][dR][dI][dY][dN][dR]-NH2) | 2 µg/mL (≈ 0.837 µM) | 4 µg/mL (≈ 1.67 µM) | 2 µg/mL (≈ 0.837 µM) | 4 µg/mL (≈ 1.67 µM) | 4 µg/mL (≈ 1.67 µM) | > 64 µg/mL | 4 µg/mL (≈ 1.67 µM) | >64 µg/mL | 8 µg/mL (≈ 3.35 µM) | 64 µg/mL (≈ 26.8 µM) | 8 µg/mL (≈ 3.35 µM) | 64 µg/mL (≈ 26.8 µM) | >64 / 64 μg/mL | >64 / 64 μg/mL | 64 µg/mL (≈ 26.8 µM) | >64 µg/mL | 1 µg/mL (≈ 0.418 µM) | 16 µg/mL (≈ 6.69 µM) | 1 µg/mL (≈ 0.418 µM) | 16 µg/mL (≈ 6.69 µM) | Haemolysis on hRBC, MHC (human red blood cells): >1000 µg/mL; MHC human red blood cells (human red blood cells): >1000 µg/mL |
| CC[C@H](C)[C@H](NC(=O)[C@H](CCCNC(=N)N)NC(=O)[C@H](CCCNC(=N)N)NC(=O)[C@@H]1CCCN1C(=O)[C@@H]1CCCN1C(=O)[C@H](CCCNC(=N)N)NC(=O)[C@H]1CCCN1C(=O)[C@H](CCCNC(=N)N)NC(=O)[C@@H]1CCCN1C(=O)[C@H](CC(C)C)NC(=O)[C@H](Cc1ccc(O)cc1)NC(=O)[C@@H]1CCCN1C(=O)[C@@H]1CCCN1C(=O)[C@H](CCCCN)NC(=O)[C@H](CC(=O)O)NC(=O)[C@@H](N)C(C)C)C(=O)N[C@@H](Cc1ccc(O)cc1)C(=O)N[C@@H](CC(N)=O)C(=O)N[C@@H](CCCNC(=N)N)C(N)=O [DP10-Onc] (H-VDKPPYLPR[dP]RPPRRIYNR-NH2) | 4 µg/mL (≈ 1.67 µM) | 32 µg/mL (≈ 13.4 µM) | 4 µg/mL (≈ 1.67 µM) | 32 µg/mL (≈ 13.4 µM) | 16 µg/mL (≈ 6.69 µM) | > 64 µg/mL | 16 µg/mL (≈ 6.69 µM) | >64 µg/mL | 8 µg/mL (≈ 3.35 µM) | 64 µg/mL (≈ 26.8 µM) | 8 µg/mL (≈ 3.35 µM) | 64 µg/mL (≈ 26.8 µM) | >64 / >64 μg/mL | >64 / >64 μg/mL | >64 µg/mL | >64 µg/mL | 4 µg/mL (≈ 1.67 µM) | 16 µg/mL (≈ 6.69 µM) | 4 µg/mL (≈ 1.67 µM) | 16 µg/mL (≈ 6.69 µM) | Haemolysis on hRBC, MHC (human red blood cells): >1000 µg/mL; MHC human red blood cells (human red blood cells): >1000 µg/mL |
